Data published in patent US20260347364A1, “PYRAZOLO[4,3-F]QUINAZOLINE DERIVATIVES AS MODULATORS OF G12D MUTANT KRAS USEFUL FOR THE TREATMENT OF CANCER” (JAZZ PHARMACEUTICALS IRELAND LTD., priority 2023, published 2026).

Key:
KRAS G12D = target: T1, KRAS G12D (Homo sapiens, UniProt P01116, G12D); assay: HTRF nucleotide exchange assay, KRAS G12D; assay type: biochemical; details: class symbols; for IC50: HTRF nucleotide exchange assay (NEA)
T1 construct: aa1-188 KRAS WT, HRAS WT, NRAS WT, or KRAS containing the G12D
Procedure: (§1) HTRF Nucleotide Exchange Assay Method
(§2) The capacity of compounds to bind KRAS G12D, other KRAS mutants and wildtype RAS isoforms was quantified using a HTRF nucleotide exchange assay. Recombinant human RAS protein (2 nM; aa1-188 KRAS WT, HRAS WT, NRAS WT, or KRAS containing the G12D, G13D or Q61H amino acid substitutions, or 4 nM KRAS; aa1-188 containing the G12V, G12C, G12A or G12S amino acid substitution, an N-terminal 6× His-tag and leader sequence), and 2 nM Europium-labeled anti-6× His antibody were mixed in assay buffer (10 mM HEPES pH 7.3, 150 mM NaCl, 5 mM MgCl2, 0.05% BSA, 0.0025% NP-40 and 100 mM KF) with various concentrations of compound in a 384-well plate and a volume of 5 μL. After a 60-minute incubation at room temperature, 5 μl of 200 nM EDA-GTP-DY647P1 (diluted in assay buffer) was added to the plate. Following 30-minute incubation at room temperature, time-resolved fluorescence was measured on a PerkinElmer Envision plate reader. DMSO (0.3%) and unlabeled GDP (1 μM) or equivalent tool compound were used to generate the Max and Min assay signals, respectively. Data was analysed using a four-parameter logistic model to calculate IC50 values, with at least two independent replicates were performed for each compound. The results are presented as IC50s in Table 29 where “A” corresponds to an IC50 ≤10 nM, “B” to an IC50 >10 nM up to 100 nM, “C” is >100 nM up to 10 μM, “D” represents <49% inhibition at 10 μM and ND=not determined: […]

KRAS WT = target: T2, KRAS WT (Homo sapiens, UniProt P01116); assay: HTRF nucleotide exchange assay, KRAS WT; assay type: biochemical; details: class symbols; for IC50: HTRF nucleotide exchange assay (NEA)
T2 construct: aa1-188 KRAS WT
Procedure: as §1, §2

Cc1cc2[nH]ncc2c(-c2c(C)c3nc(OCC45CCCN4CC(F)C5)nc(N4CCOCC(C)(O)C4)c3c3cn(C)nc23)c1Cl [Example 173, 4-[4-(5-chloro-6-methyl-1H-indazol-4-yl)-2,5-dimethyl-7-[[(2R,8S)-2-fluoro-1,2,3,5,6,7-hexahydropyrrolizin-8-yl]methoxy]pyrazolo[4,3-f]quinazolin-9-yl]-6-methyl-1,4-oxazepan-6-ol]
IC50 (KRAS G12D): 10 to 100 nM
IC50 (KRAS WT): 100 to 10000 nM

C#Cc1c(F)ccc2cc(O)cc(-c3c(F)c4nc(OC[C@@]56CCCN5C[C@H](F)C6)nc(N5CCCn6nc(C(=O)N(C)C)cc6C5)c4c4cn(C)nc34)c12 [Example 93, 5-[4-(8-ethynyl-7-fluoro-3-hydroxy-1-naphthyl)-5-fluoro-2-methyl-7-[[(2R,8S)-2-fluoro-1,2,3,5,6,7-hexahydropyrrolizin-8-yl]methoxy]pyrazolo[4,3-f]quinazolin-9-yl]-N,N-dimethyl-4,6,7,8-tetrahydropyrazolo[1,5-a][1,4]diazepine-2-carboxamide]
IC50 (KRAS G12D): ≤ 10 nM
IC50 (KRAS WT): ≤ 10 nM

CCc1c(F)ccc2cc(O)cc(-c3c(F)c4nc(OCC56COC(COC)(C5)C6)nc(N5CCOCC(C)(O)C5)c4c4cn(C)nc34)c12 (stereo not drawn) [Example 165, 4-[4-(8-ethyl-7-fluoro-3-hydroxy-1-naphthyl)-5-fluoro-7-[[1-(methoxymethyl)-2-oxabicyclo[2.1.1]hexan-4-yl]methoxy]-2-methyl-pyrazolo[4,3-f]quinazolin-9-yl]-6-methyl-1,4-oxazepan-6-ol]
IC50 (KRAS G12D): ≤ 10 nM
IC50 (KRAS WT): 10 to 100 nM

CCc1c(F)ccc2cc(O)cc(-c3cc4nc(OC[C@@]56CCCN5C[C@H](F)C6)nc(N5CCC5C(C)(C)O)c4c4cn(C)nc34)c12 (stereo partly drawn) [Example 135, 5-ethyl-6-fluoro-4-[9-[2-(1-hydroxy-1-methyl-ethyl)azetidin-1-yl]-2-methyl-7-[[(2R,8S)-2-fluoro-1,2,3,5,6,7-hexahydropyrrolizin-8-yl]methoxy]pyrazolo[4,3-f]quinazolin-4-yl]naphthalen-2-ol]
IC50 (KRAS G12D): 100 to 10000 nM
IC50 (KRAS WT): 10 to 100 nM

CCc1c(F)ccc2cc(O)cc(-c3c(F)c4nc(OC[C@@]5(CN(C)C)CC5(F)F)nc(N5CCOCC(C)(O)C5)c4c4cn(C)nc34)c12 (stereo partly drawn) [Example 236, 4-[4-(8-ethyl-7-fluoro-3-hydroxy-1-naphthyl)-5-fluoro-2-methyl-7-[[(1S)-1-[(dimethylamino)methyl]-2,2-difluoro-cyclopropyl]methoxy]pyrazolo[4,3-f]quinazolin-9-yl]-6-methyl-1,4-oxazepan-6-ol]
IC50 (KRAS G12D): ≤ 10 nM
IC50 (KRAS WT): ≤ 10 nM

CCc1c(F)ccc2cc(O)cc(-c3c(F)c4nc(OCC5(CN(C)C)CC5)nc(N5CCOC[C@@](C)(O)C5)c4c4cn(C)nc34)c12 [Example 245, (6S)-4-[7-[[1-[(dimethylamino)methyl]cyclopropyl]methoxy]-4-(8-ethyl-7-fluoro-3-hydroxy-1-naphthyl)-5-fluoro-2-methyl-pyrazolo[4,3-f]quinazolin-9-yl]-6-methyl-1,4-oxazepan-6-ol]
IC50 (KRAS G12D): ≤ 10 nM
IC50 (KRAS WT): ≤ 10 nM

CCc1c(F)ccc2cc(O)cc(-c3c(F)c4nc(OCC5(CN6CCC(F)(F)C6)CC5)nc(N5CCOCC(C)(O)C5)c4c4cn(C)nc34)c12 (stereo not drawn) [Example 189, 4-[7-[[1-[(3,3-difluoropyrrolidin-1-yl)methyl]cyclopropyl]methoxy]-4-(8-ethyl-7-fluoro-3-hydroxy-1-naphthyl)-5-fluoro-2-methyl-pyrazolo[4,3-f]quinazolin-9-yl]-6-methyl-1,4-oxazepan-6-ol]
IC50 (KRAS G12D): 10 to 100 nM
IC50 (KRAS WT): 10 to 100 nM

CCc1c(F)ccc2cc(O)cc(-c3c(F)c4nc(OC[C@@]56CCCN5C[C@H](F)C6)nc(N5CCOCC(O)C5)c4c4cn(C)nc34)c12 (stereo partly drawn) [Example 223, 4-[4-(8-ethyl-7-fluoro-3-hydroxy-1-naphthyl)-5-fluoro-7-[[(2R,8S)-2-fluoro-1,2,3,5,6,7-hexahydropyrrolizin-8-yl]methoxy]-2-methyl-pyrazolo[4,3-f]quinazolin-9-yl]-1,4-oxazepan-6-ol]
IC50 (KRAS G12D): ≤ 10 nM
IC50 (KRAS WT): ≤ 10 nM

CCc1c(F)ccc2cc(O)cc(-c3c(C)c4nc(OC[C@@]56CCCN5C[C@H](F)C6)nc(N5CCCn6nc(C(=O)N(C)C)nc6C5)c4c4cn(C)nc34)c12 (racemic) [Example 198, 8-[4-(8-ethyl-7-fluoro-3-hydroxy-1-naphthyl)-2,5-dimethyl-7-[[rac-(2R,8S)-2-fluoro-1,2,3,5,6,7-hexahydropyrrolizin-8-yl]methoxy]pyrazolo[4,3-f]quinazolin-9-yl]-N,N-dimethyl-5,6,7,9-tetrahydro-[1,2,4]triazolo[1,5-a][1,4]diazepine-2-carboxamide]
IC50 (KRAS G12D): ≤ 10 nM
IC50 (KRAS WT): ≤ 10 nM

CCc1c(F)ccc2cc(O)cc(-c3cc4nc(OC[C@@]56CCCN5C[C@H](F)C6)nc(N5CCCn6nccc6C5)c4c4cn(C)nc34)c12 [Example 59, 5-ethyl-6-fluoro-4-[2-methyl-7-[[(2R,8S)-2-fluoro-1,2,3,5,6,7-hexahydropyrrolizin-8-yl]methoxy]-9-(4,6,7,8-tetrahydropyrazolo[1,5-a][1,4]diazepin-5-yl)pyrazolo[4,3-f]quinazolin-4-yl]naphthalen-2-ol]
IC50 (KRAS G12D): ≤ 10 nM
IC50 (KRAS WT): 10 to 100 nM

CCc1c(F)ccc2cc(O)cc(-c3c(C)c4nc(OCC5(CN(C)C)CC5)nc(N5CCC[C@@](C)(O)C5)c4c4cn(C)nc34)c12 [Example 204, (3R)-1-[7-[[1-[(dimethylamino)methyl]cyclopropyl]methoxy]-4-(8-ethyl-7-fluoro-3-hydroxy-1-naphthyl)-2,5-dimethyl-pyrazolo[4,3-f]quinazolin-9-yl]-3-methyl-piperidin-3-ol]
IC50 (KRAS G12D): ≤ 10 nM
IC50 (KRAS WT): ≤ 10 nM

CCc1c(F)ccc2cc(O)cc(-c3cc4nc(OCC5(CN(C)C)CC5)nc(N5CCCOCC5)c4c4cn(C)nc34)c12 [Example 30, 4-[7-[[1-[(dimethylamino)methyl]cyclopropyl]methoxy]-2-methyl-9-(1,4-oxazepan-4-yl)pyrazolo[4,3-f]quinazolin-4-yl]-5-ethyl-6-fluoro-naphthalen-2-ol]
IC50 (KRAS G12D): 10 to 100 nM
IC50 (KRAS WT): 10 to 100 nM

C#Cc1c(F)ccc2cc(O)cc(-c3cc4nc(OC[C@@]56CCCN5C[C@H](F)C6)nc(N5CC6C(=O)NC(=O)C6C5)c4c4cn(C)nc34)c12 (stereo partly drawn) [Example 37]
IC50 (KRAS G12D): 100 to 10000 nM
KRAS^WT NEA (KRAS WT): D (<49% inhibition at 10 μM)

CN(C)C(=O)c1cc2n(n1)CCCN(c1nc(OC[C@@]34CCCN3C[C@H](F)C4)nc3cc(-c4cccc5sc(N)c(C#N)c45)c4nn(C)cc4c13)C2 [Example 76, 5-[4-(2-amino-3-cyano-benzothiophen-4-yl)-7-[[(2R,8S)-2-fluoro-1,2,3,5,6,7-hexahydropyrrolizin-8-yl]methoxy]-2-methyl-pyrazolo[4,3-f]quinazolin-9-yl]-N,N-dimethyl-4,6,7,8-tetrahydropyrazolo[1,5-a][1,4]diazepine-2-carboxamide]
IC50 (KRAS G12D): ≤ 10 nM
IC50 (KRAS WT): 10 to 100 nM

CCc1c(F)ccc2cc(O)cc(-c3c(C)c4nc(OC[C@@]56CCCN5C[C@H](F)C6)nc(N5CC6CCC5CN6)c4c4cn(C)nc34)c12 (stereo partly drawn) [Example 216, 4-[9-(2,5-diazabicyclo[2.2.2]octan-2-yl)-2,5-dimethyl-7-[[(2R,8S)-2-fluoro-1,2,3,5,6,7-hexahydropyrrolizin-8-yl]methoxy]pyrazolo[4,3-f]quinazolin-4-yl]-5-ethyl-6-fluoro-naphthalen-2-ol]
IC50 (KRAS G12D): ≤ 10 nM
IC50 (KRAS WT): ≤ 10 nM

CCNC(=O)c1cc2n(n1)CCCN(c1nc(OC[C@@]34CCCN3C[C@H](F)C4)nc3c(F)c(-c4cc(O)cc5ccc(F)c(CC)c45)c4nn(C)cc4c13)C2 [Example 196, N-ethyl-5-[4-(8-ethyl-7-fluoro-3-hydroxy-1-naphthyl)-5-fluoro-7-[[(2R,8S)-2-fluoro-1,2,3,5,6,7-hexahydropyrrolizin-8-yl]methoxy]-2-methyl-pyrazolo[4,3-f]quinazolin-9-yl]-4,6,7,8-tetrahydropyrazolo[1,5-a][1,4]diazepine-2-carboxamide]
IC50 (KRAS G12D): ≤ 10 nM
IC50 (KRAS WT): ≤ 10 nM

Cn1ncc2c3c(N4CCCOCC4)nc(OC[C@@]45CCCN4C[C@H](F)C5)nc3cc(-c3cc(O)cc4ccccc34)c21 [Example 48, 4-[3-methyl-9-(1,4-oxazepan-4-yl)-7-[[(2R,8S)-2-fluoro-1,2,3,5,6,7-hexahydropyrrolizin-8-yl]methoxy]pyrazolo[4,3-f]quinazolin-4-yl]naphthalen-2-ol]
KRAS^G12D NEA (KRAS G12D): D (<49% inhibition at 10 μM)
KRAS^WT NEA (KRAS WT): D (<49% inhibition at 10 μM)

CCc1c(F)ccc2cc(O)cc(-c3cc4nc(OC[C@]5(C)CCCN5)nc(N5CCCn6nc(C(=O)N(C)C)cc6C5)c4c4cn(C)nc34)c12 [Example 53, 5-[4-(8-ethyl-7-fluoro-3-hydroxy-1-naphthyl)-2-methyl-7-[[(2S)-2-methylpyrrolidin-2-yl]methoxy]pyrazolo[4,3-f]quinazolin-9-yl]-N,N-dimethyl-4,6,7,8-tetrahydropyrazolo[1,5-a][1,4]diazepine-2-carboxamide]
IC50 (KRAS G12D): 100 to 10000 nM
KRAS^WT NEA (KRAS WT): D (<49% inhibition at 10 μM)
